Where a name gives a salt, the structure may show the parent alone. Read-outs that look alike come from different tables or passages of the source.
Test system: murine neural precursor cells (neurosphere cultures)
Assay: HTS of LOPAC library against secondary neurosphere cultures, MTT proliferation assay at 3 μM, day 7 (z score, P value)
Format: cell-based, mouse
[1] = LOPAC library screen at 3 μM, secondary neurosphere cultures, MTT
[2] = primary LOPAC screen, 3 μM, MTT, neurosphere proliferation
[3] = yes/no: significantly inhibited neurosphere proliferation in the primary screen
[4] = LOPAC library screen, 3 μM, MTT, secondary neurosphere cultures, day 7
[5] = LOPAC primary screen, neurosphere MTT proliferation, 3 μM, day 7
[6] = yes = significantly inhibited neurosphere proliferation (P<0.01) in the primary screen
[7] = LOPAC library screen, 3 μM, MTT, neurosphere cultures
[8] = yes/no: significantly inhibited neurosphere proliferation in primary screen
[9] = yes/no: significantly inhibited neurosphere proliferation (P<0.01) in the primary screen

c1ccc2c(c1)CCCC2C1=NCCN1 (centres unmarked) [Tetrahydrozoline hydrochloride]
Z Score [1]: −0.4693 | Z score [2]: −0.469 | Activity [3]: no

CC(C)NP(=O)(NC(C)C)OP(=O)(NC(C)C)NC(C)C [Tetraisopropyl pyrophosphoramide]
Z Score: −1.114 | Z score [2]: −1.114 | Activity [3]: no

c1ccc(C2CN3CCSC3=N2)cc1 (centres unmarked) [Tetramisole hydrochloride]
Z Score (LOPAC library screen at 3 μM, MTT, secondary neurosphere cultures, screened in singlets): 2.649 | Z score [2]: 2.649 | Activity [3]: no

C/C=C(/C)C(=O)O[C@H]1C(C)=C2[C@H]([C@@H]1OC(=O)CCCCCCC)[C@@](C)(OC(C)=O)C[C@H](OC(=O)CCC)[C@@]1(O)[C@H]2OC(=O)[C@@]1(C)O [Thapsigargin]
Z Score [4]: −9.559 | Z score [5]: −9.559 | Activity [6]: yes

Cn1cnc2c1c(=O)[nH]c(=O)n2C [Theobromine]
Z Score (168 h, 3 µM): −1.392 | Z score (168 h, 3 µM): −1.392 | Activity [3]: no

Cn1c(=O)c2[nH]cnc2n(C)c1=O [Theophylline]
Activity: no | Z Score [7]: 0.3699 | Z score [2]: 0.370

NC(=S)c1ccc[n+]([C@@H]2O[C@@H](COP(=O)([O-])OP(=O)(O)OC[C@H]3O[C@@H](n4cnc5c(N)ncnc54)C(OP(=O)([O-])O)[C@H]3O)C(O)C2O)c1.[Na+] (some centres unmarked) [Thio-NADP sodium]
Z Score: 0.3661 | Z score [2]: 0.366 | Activity [3]: no

C=C/C(C)=C/[C@@]1(C)SC(=O)C(C)=C1O [Thiolactomycin]
Z Score [4]: −1.3 | Z score [5]: −1.300 | Activity [8]: no

S=C(NC1CCCCC1)N1CCC(c2cnc[nH]2)CC1 [Thioperamide maleate]
Z Score [1]: −0.1537 | Z score [2]: −0.154 | Activity [3]: no

CSc1ccc2c(c1)N(CCC1CCCCN1C)c1ccccc1S2 (centres unmarked) [Thioridazine hydrochloride]
Z Score (168 h, 3 µM): 0.2356 | Z score (168 h, 3 µM): 0.236 | Activity [9]: no

CN1CCN(CC/C=C2/c3ccccc3Sc3ccc(S(=O)(=O)N(C)C)cc32)CC1 [Thiothixene hydrochloride]
Activity: no | Z Score (168 h, 3 µM): −1.899 | Z score (168 h, 3 µM): −1.899

CCN(CC)CCNC(=O)c1cc(S(C)(=O)=O)ccc1OC [Tiapride hydrochloride]
Z Score [7]: 0.6889 | Z score [5]: 0.689 | Activity [9]: no

Cc1ccc(S(=O)(=O)NC(=O)NN2CCCCCC2)cc1 [Tolazamide]
Z Score [7]: 1.431 | Z score [2]: 1.431 | Activity [3]: no

CCCCNC(=O)NS(=O)(=O)c1ccc(C)cc1 [Tolbutamide]
Activity: no | Z Score [1]: −0.3032 | Z score [2]: −0.303

CNCC[C@@H](Oc1ccccc1C)c1ccccc1 [Tomoxetine]
Activity: no | Z Score [7]: 0.1672 | Z score [2]: 0.167

CCCCNc1c(C(=O)OCC)c(C)nc2c1cnn2CC [Tracazolate]
Z Score [1]: −0.3151 | Z score [2]: −0.315 | Activity [3]: no

COc1ccc(/C=C/C(=O)Nc2ccccc2C(=O)O)cc1OC [Tranilast]
Z Score [7]: 0.1736 | Z score [2]: 0.174

N[C@@H]1C[C@H]1c1ccccc1 [Tranylcypromine hydrochloride]
Z Score [4]: −1.441 | Z score [5]: −1.441 | Activity [8]: no

O=c1n(CCCN2CCN(c3cccc(Cl)c3)CC2)nc2ccccn12 [Trazodone hydrochloride]
Z Score (168 h, 3 µM): −2.644 | Z score (168 h, 3 µM): −2.644 | Activity [9]: yes

COc1cc2c(cc1OC)-c1c/c(=N\c3c(C)cc(C)cc3C)n(C)c(=O)n1CC2 [Trequinsin hydrochloride]
Z Score [1]: −0.9709 | Z score [2]: −0.971 | Activity [3]: no

C[C@]12C=CC(=O)C=C1CC[C@H]1[C@@H]3C[C@@H](O)[C@](O)(C(=O)CO)[C@@]3(C)C[C@H](O)[C@@]12F [Triamcinolone]
Activity: no | Z Score [1]: −0.184 | Z score [5]: −0.184

Nc1nc(N)c2nc(-c3ccccc3)c(N)nc2n1 [Triamterene]
Z Score [4]: −4.642 | Z score [5]: −4.642 | Activity [6]: yes

— patent US8058243B2, “Method for treating a brain cancer with ifenprodil” (HSC Research and Development Limited Partnership, priority 2006, dated 2011)
